Results from PMC6627868 (Marine Drugs, 2019).

How the values were obtained:
[1] = simulated gastric fluid, pH 1.8
[2] = pH 6.5
[3] = simulated intestinal fluid, pH 6.5

CC[C@H](C)[C@@H]1NC(=O)[C@@H]2CCCN2C(=O)[C@H](CO)NC(=O)[C@H](CCSC)NC(=O)[C@H](C)NC(=O)[C@H](CO)NC(=O)[C@@H]2CSSC[C@H](NC(=O)CN)C(=O)N[C@@H](CSSC[C@@H](C(N)=O)NC1=O)C(=O)N[C@@H](CO)C(=O)N[C@@H](Cc1cnc[nH]1)C(=O)N1CCC[C@H]1C(=O)N[C@@H](C(C)C)C(=O)N2 [TxID, α-Conotoxin TxID]
remaining at 48 h [1]: 65.2 ± 2%
remaining amount in SIF after 2 h [2]: 5.8 ± 2.0%
remaining at 0.5 h [3]: 36.3 ± 2%
